This is an account of results in ChEMBL document CHEMBL3886495, “Aminoheteroaryl benzamides as kinase inhibitors” (2016).

The structures appear in SMILES notation.

Experiment [1] addresses T1, Mitogen-activated protein kinase 1 (Homo sapiens, UniProt P28482). Nature of the experiment: (§1) Kinase Assay (New): Compound potency against activated ERK2 is determined using a kinase assay that measures ERK2-catalyzed phosphorylation of biotinylated ERKtide peptide substrate ([Biotin]-AHA-KRELVEPLTPSGEAPNQALLR-[NH2], the peptide sequence derived from EGF receptor: SEQ ID NO:1). The assay is carried out in 50 mM HEPES [pH 7.5], 5 mM MgCl2, 1 mM DTT, 0.01% Tween-20, 0.05% BSA using 0.25 nM ERK2, 200 nM ERKtide peptide and 35 uM ATP (all concentrations are final in the reaction) in a total volume of 10.25 uL. A 16-point, half-log dilution series of compounds at 41x final concentration is used for generating IC50 curves. Compound dilution series are prepared in 100% DMSO. ERK2 is preincubated with compounds for 30 minutes at ambient temperature. Reaction is initiated by addition of a substrate cocktail of ERKtide peptide and ATP and is allowed to proceed for 2-3 hours at ambient temperature. Reaction is terminated by addition of 10 uL of a 2x stop buffer consisting of 100 mM Tris-Cl [pH 7.5], 25 mM EDTA, 0.01% Tween 20, 10 ug/mL of AlphaScreen Protein A Acceptor Beads, 10 ug/mL of Streptavidin Donor Beads (PerkinElmer, Waltham, Mass.), and 1.4 ug/mL phospho-EGF Receptor (Thr669) antibody (Cat #3056, Cell Signaling Technology, Danvers, Mass.). Terminated reactions are read, after overnight incubation in the dark, on an EnVision Multilabel Plate Reader (PerkinElmer, Waltham, Mass.), with excitation and emission wavelengths set to 680 nm and 570 nm, respectively. IC50 values are determined using a four-parameter fit.

In experiment [2] the target is T1, Mitogen-activated protein kinase 1. Nature of the experiment: The assay was carried out in 20 mM HEPES [pH 7.5], 5 mM MgCl2, 1 mM DTT, 0.01% Tween-20, 0.05% BSA using 0.02 nM ERK2, 400 nM ERKtide peptide and 35 uM ATP (all concentrations are final in the reaction) in a total volume of 10.25 uL. A 16-point, half-log dilution series of compounds at 41x final concentration was used for generating IC50 curves. Compound dilution series were prepared in 100% DMSO. ERK2 was preincubated with compounds for 30 minutes at ambient temperature. Reaction was initiated by addition of a substrate cocktail of ERKtide peptide and ATP and was allowed to proceed for 4 hours at ambient temperature. Reaction was terminated by addition of 10 uL of a 2x stop buffer consisting of 100 mM Tris-Cl [pH 7.5], 25 mM EDTA, 0.01% Tween 20, 20 ug/mL of AlphaScreen Protein A Acceptor Beads, 20 ug/mL of Streptavidin Donor Beads (PerkinElmer, Waltham, Mass.), and 1:1000 dilution phospho-EGF Receptor (Thr669) antibody (Cat #8808, Cell Signaling Technology, Danvers, Mass.). Terminated reactions were read, after overnight incubation in the dark, on an EnVision Multilabel Plate Reader (PerkinElmer, Waltham, Mass.), with excitation and emission wavelengths set to 680 nm and 570 nm, respectively. IC50 values were determined using a four-parameter fit.

Experiment [3] has the same target. The experiment is described as §1, with “AlphaScreen Assay:” for “Kinase Assay (New):”, “Mass.).” for “Mass.). Terminated reactions are read, after overnight incubation in the dark, on an EnVision Multilabel Plate Reader (PerkinElmer, Waltham, Mass.), with excitation and emission wavelengths set to 680 nm and 570 nm, respectively. IC50 values are determined using a four-parameter fit.”.

T1 sequence (P28482 whole entry): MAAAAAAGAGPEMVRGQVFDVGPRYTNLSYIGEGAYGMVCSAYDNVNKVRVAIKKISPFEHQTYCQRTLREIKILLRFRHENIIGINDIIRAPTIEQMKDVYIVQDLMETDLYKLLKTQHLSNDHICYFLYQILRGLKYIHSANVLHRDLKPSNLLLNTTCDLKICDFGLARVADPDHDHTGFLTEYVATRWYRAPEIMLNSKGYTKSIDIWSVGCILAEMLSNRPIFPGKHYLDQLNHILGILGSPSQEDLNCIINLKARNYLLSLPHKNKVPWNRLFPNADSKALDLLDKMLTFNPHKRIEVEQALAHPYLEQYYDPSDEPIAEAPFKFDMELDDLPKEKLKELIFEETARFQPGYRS

Turning to `CS(=O)(=O)[C@H]1CC[C@H](c2cnc(N)c(-c3ccc(C(=O)NCc4ccccc4)c(F)c3)n2)CC1`, the IC50 amounted to 64.4 nM in experiment [1] and 29.7 nM in experiment [2]. Take `Nc1ncc([C@H]2CC[C@H](O)CC2)nc1-c1ccc(C(=O)NCc2cccc(Cl)n2)c(F)c1`: the IC50 in experiment [2] was 21 nM. The same measure, in the same setting: for `Nc1ncc([C@H]2CC[C@@H](O)CC2)nc1-c1ccc(C(=O)NCc2cccc(Cl)n2)c(F)c1` the value was 159 nM; for `Cc1nn(C(F)F)cc1-c1cnc(N)c(-c2ccc(C(=O)N[C@H](CO)c3cccc(Cl)c3)c(F)c2)c1`, 0.0245 nM. On to `Cn1cc(-c2cnc(N)c(-c3ccc(C(=O)N[C@H](CO)c4ccccc4)c(F)c3)c2F)cn1`, for which, in experiment [1], the IC50 came out at 9.77 nM. As to `CC(C)n1cc(-c2cnc(N)c(-c3ccc(C(=O)N[C@H](CO)c4ccccc4)c(F)c3)c2)cn1`, in experiment [1], the IC50 amounted to 2.06 nM. `Nc1ncc(C2CCOCC2)nc1-c1ccc(C(=O)N[C@H](CO)C2CCCCC2)c(F)c1`: the IC50 in experiment [1] was determined as 26.5 nM. `Nc1ncc(N2CCOCC2)cc1-c1ccc(C(=O)N[C@H](CO)c2ccccc2)c(F)c1`: the IC50 amounted to 1.31 nM in experiment [2] and 20.6 nM in experiment [3]. On to `Cc1nn(C)cc1-c1cnc(N)c(-c2ccc(C(=O)N[C@H](CO)c3ccccc3)c(F)c2)c1`, for which the IC50 in experiment [1] turned out to be 1.41 nM. Take `Nc1cc(-c2cc(C3CCOCC3)cnc2N)ccc1C(=O)N[C@H](CO)c1ccccc1`: the IC50 in experiment [2] stood at 3.04 nM; in experiment [3] it was 5.24 nM.

As to `Cn1ccc(-c2cnc(N)c(-c3ccc(C(=O)N[C@H](CO)c4cccc(Cl)c4)c(F)c3)c2)n1`, the IC50 in experiment [2] turned out to be 0.0937 nM.
